Measurements reported in patent US20040167097A1, “EPO D + 5-FU/gemcitabine” (priority 2002, published 2004).
Read-outs that look alike come from different tables or passages of the source.

Assays:
thymidine phosphorylase = test: Production of thymidine phosphorylase in tumor cells; type: cell-based; details: some tumor cells; preliminary experiments
Description: The data from each of the combination analyses was analyzed using [sequence] software (Biosoft, Cambridge, UK), which determined a combination index (“CI”) value for each combination in each of the three cell lines examined.

[1] = tested on: paclitaxel-sensitive and paclitaxel-resistant cell lines and xenographs; details: cited from earlier work
tumor = details: mice; Chou, et al. 2001; cited from earlier work
[2] = Pharmacokinetics after infusion; type: in vivo
Excerpt: In general, the pharmacokinetics are favorable. […] This is somewhat higher on average than the values for paclitaxel which are 140±70 l.

[3] = comparison value for paclitaxel; cited from earlier work

Structure (SMILES)	production of thymidine phosphorylase (thymidine phosphorylase)	antitumor efficacy [1]	antitumor effects (tumor)	dependence of AUC on dosage ([2]; from 9 to 150 mg/m^2)	dose dependence of pharmacokinetics ([2]; in vivo)	pharmacokinetic parameters, second infusion as compared to first infusion ([2]; in vivo)	half-life, mean value ([2]; infusion)	volume of distribution (Vz) ([2]; infusion)	volume of distribution (Vz) [3]
C/C1=C/C[C@@H](/C(C)=C/c2csc(C)n2)OC(=O)C[C@H](O)C(C)(C)C(=O)[C@H](C)[C@@H](O)[C@@H](C)CCC1 [epothilone D, 12,13-deoxyepothilone B]	upregulate	has antitumor efficacy	dramatic antitumor effects	linear	not dose-dependent	do not change	9.6 ± 2.2 h	172 ± 74 L	
CC(=O)O[C@H]1C(=O)[C@@]2(C)[C@H]([C@H](OC(=O)c3ccccc3)[C@]3(O)C[C@H](OC(=O)[C@H](O)[C@@H](NC(=O)c4ccccc4)c4ccccc4)C(C)=C1C3(C)C)[C@]1(OC(C)=O)CO[C@@H]1C[C@@H]2O [paclitaxel]									140 ± 70 L
